One assay has as its target T1, FIKK13 (Plasmodium falciparum, UniProt A0A143ZWL4).
T1 construct: gene PF3D7_1371700; recombinant kinase domain
Nature of the assay: ADP-Glo kinase assay, % inhibition heat map (n = […]). In kind it is biochemical. In general terms: In ADP-Glo the light output rises with the ADP produced.

In another assay the target is T2, FIKK1 (Plasmodium falciparum, UniProt B9ZSH8).
T2 construct: gene PF3D7_0102600; recombinant kinase domain
Described as above. Type of assay: biochemical.

The next assay concerns the target T3, FIKK8 (Plasmodium falciparum, UniProt C0H4R8).
T3 construct: gene PF3D7_0805700; recombinant FIKK8 kinase domain
Nature of the assay: biochemical. More on the design: ADP-Glo luminescence kinase assay, recombinant FIKK8 kinase domain, Po peptide substrate plus ATP, four-parameter IC50 fit. How it is done: Columns 6 and 18 of the microplates served as controls. Column 6 was a positive control (recombinant FIKK8 kinase domain + Po peptide ([…])[22] + ATP without compounds). Column 18 was a negative control (recombinant FIKK8 kinase domain + Po peptide − ATP). First, 3 µl kinase at 40 nM in kinase reaction buffer (20 mM MOPS, 10 mM magnesium chloride and 10 mM manganese chloride, pH 7.4 (Alfa Aesar)) was dispensed in each well using a Multidrop Combi Reagent dispenser (Thermo Fisher Scientific). Recombinant FIKK8 kinase domain was left to incubate in the presence of compounds for 15 min at room temperature. Then, 3 µl Po peptide + ATP at 20 µM each, diluted in kinase reaction buffer, was dispensed in each well except in column 18 in which 3 µl of peptide without ATP was dispensed. The kinase reaction was left to occur for 1 h and was stopped with 6 µl ADP-Glo reagent. Kinase activity was assessed after addition of 12 µl kinase detection reagent by measuring luminescence on a multimode microplate reader FLUOstar Omega (BMG Labtech).

T3 sequence (C0H4R8 entry or part of it): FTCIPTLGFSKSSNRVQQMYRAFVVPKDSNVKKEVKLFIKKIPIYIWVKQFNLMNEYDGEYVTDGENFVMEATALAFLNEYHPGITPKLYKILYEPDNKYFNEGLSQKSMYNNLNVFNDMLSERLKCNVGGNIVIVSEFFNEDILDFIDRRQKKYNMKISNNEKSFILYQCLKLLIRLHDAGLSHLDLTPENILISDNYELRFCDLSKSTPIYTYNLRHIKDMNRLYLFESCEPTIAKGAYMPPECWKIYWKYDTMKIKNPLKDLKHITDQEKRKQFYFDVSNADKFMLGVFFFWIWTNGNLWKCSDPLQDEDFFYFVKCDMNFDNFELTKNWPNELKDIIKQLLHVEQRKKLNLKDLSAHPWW
T2 sequence (B9ZSH8 entry or part of it): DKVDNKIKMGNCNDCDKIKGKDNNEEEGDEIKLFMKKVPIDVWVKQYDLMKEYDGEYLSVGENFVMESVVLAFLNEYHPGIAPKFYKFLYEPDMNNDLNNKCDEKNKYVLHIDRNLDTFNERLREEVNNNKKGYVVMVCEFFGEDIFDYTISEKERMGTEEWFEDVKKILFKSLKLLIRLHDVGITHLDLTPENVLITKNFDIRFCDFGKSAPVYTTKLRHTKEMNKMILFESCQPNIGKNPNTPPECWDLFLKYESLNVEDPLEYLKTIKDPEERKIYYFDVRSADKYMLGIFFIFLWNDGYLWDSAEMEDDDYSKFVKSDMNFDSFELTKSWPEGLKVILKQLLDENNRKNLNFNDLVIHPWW
T1 sequence (A0A143ZWL4 entry or part of it): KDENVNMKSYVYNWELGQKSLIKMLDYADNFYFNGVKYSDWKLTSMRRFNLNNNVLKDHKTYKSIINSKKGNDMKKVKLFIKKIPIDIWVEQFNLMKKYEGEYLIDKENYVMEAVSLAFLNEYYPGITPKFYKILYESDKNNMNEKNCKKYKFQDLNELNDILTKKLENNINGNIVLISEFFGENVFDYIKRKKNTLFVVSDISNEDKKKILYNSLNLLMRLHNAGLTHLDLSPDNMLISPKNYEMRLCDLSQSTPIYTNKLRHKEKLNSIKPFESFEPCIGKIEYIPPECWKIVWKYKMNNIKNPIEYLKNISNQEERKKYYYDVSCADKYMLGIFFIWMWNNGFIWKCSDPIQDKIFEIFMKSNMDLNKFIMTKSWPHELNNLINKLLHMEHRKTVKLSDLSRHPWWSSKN

`Cc1cc(O)c2c(c1)C(=O)c1cc(O)cc(O)c1C2=O` [Emodin]: the “ADP-Glo kinase assay, % inhibition heat map (n = 3)” value on FIKK13 and at FIKK1 was “showed potency against all PfFIKKs (Fig. 6d)” each time.
In general, IC50 refers to the concentration that inhibits the measured activity by half. As to `COc1ccc(Nc2ncc(C#N)c(Nc3ccccc3C(N)=O)n2)cc1N1CCN(C)CC1` [GSK1558669A], the IC50 on FIKK8 turned out to be 89 ± 37 nM.
On the same count and under the same terms, then `O=c1[nH]ccc2nc(N[C@@H]3CCCNC3)nc(Nc3ccc(S(=O)(=O)N4CCOCC4)cc3)c12` [GSK2177277A], with 48 ± 4.4 nM.
Still for that read-out and setting: with `O=c1[nH]ccc2nc(N[C@@H]3CCNC3)nc(Nc3ccc4c(c3)S(=O)(=O)CC4)c12` [GSK2181306A] the figure was 31 ± 1.6 nM.
On the same count and under the same terms, then `O=c1[nH]ccc2nc(N[C@@H]3CCNC3)nc(Nc3cc(Cl)cc(Cl)c3)c12` [GSK2188764A], with 60 ± 9.8 nM; and `Cc1cccc(Nc2nc(N[C@H]3CCNC3)ncc2C(N)=O)c1` [GSK2197149A], with 315 ± 52 nM; and `CCN(CC)Cc1ccc(Nc2nccc(-c3cnn4ncccc34)n2)cc1` [GW780056X], with 332 ± 88 nM.
For the compound `CCNc1nccc(-c2c(-c3ccc(F)cc3)ncn2C2CCN(C)CC2)n1` [SB-226605], the IC50 on FIKK8 worked out at 98 ± 6.6 nM.
The same measure, in the same setting: with `CN1CCC(n2cnc(-c3ccc(F)cc3)c2-c2ccnc(NCCO)n2)CC1` [SB-226879] the figure was 176 ± 20 nM.
Take `CN1CCC(n2cnc(-c3ccc(F)cc3)c2-c2ccnc(NC3CCNCC3)n2)CC1` [SB-229482]: at FIKK8, the IC50 came out at 24 ± 1.7 nM.
Still for that read-out and setting: then `O=C(Nc1n[nH]c2nnc(-c3cccnc3)cc12)C1CC1` [SB-675259-M], with 168 ± 21 nM; and `CCN1CCC(CC(=O)Nc2n[nH]c3nc(-c4cccs4)c(Br)cc23)CC1` [SB-739245-AC], with 238 ± 28 nM.

These data come from publication PMC12137140, “The fast-evolving FIKK kinase family of Plasmodium falciparum can be inhibited by a single compound” (Nature Microbiology, 2025).
